Measurements published in patent publication US12281077B2, “Solid forms of n-tert-butyl-4[[2-(5-chloro-2-hydroxy-phenyl)acetyl]amino]pyridine-2-carboxamide” (TMEM16A LIMITED, priority 2019, dated 2025).
Entries after “also recorded” stand apart in the source; their conditions may differ. Where two headings read alike, the source gives them in different places.

Columns and labels:
Type in all cases: physicochemical
[1] = Aqueous surfactant equilibration of Form A: conversion into Form B monitored by XRPD
Description: A sample of Form A was micronised using an AS100 spiral jet mill (Alpine) with a ZD9 screw dosing system at a milling gas pressure of 5.0 bar (18° C.) and an injection gas pressure of 6.0 bar (18° C.). Feed rate was 350 g/hr.
Form A and micronised Form A were added to purified water containing the surfactants shown in Table 6, and the mixtures were stirred at 20° C.
Sub samples (300 to 500 μl) were withdrawn at the appropriate time points. The mixtures were centrifuged, the clarified supernatant was decanted, and the pellet was oven dried (20° C., 24 h) and analysed by XRPD. […] The time taken for complete conversion of Form A into Form B was concluded when Form A was no longer detectable by XRPD.
A micelle is an aggregate of surfactant molecules dispersed in a liquid colloid. Micelles form only when the concentration of surfactant is greater than the critical micelle concentration (CMC). • Surf 1: TWEEN® 80 (polysorbate 80; polyoxyethylene sorbitan monooleate) Critical Micellar Concentration (CMC) 13-15 mg/litre [actual concentration used=1 mg/ml, 1000 mg/litre>CMC] • Surf 2: TWEEN® 20 (polysorbate 20; polyethylene glycol sorbitan monolaurate) 20 Critical Micellar Concentration (CMC) ca 61 mg/litre [actual concentration used=0.5 mg/ml, 500 mg/litre>CMC] • Surf 3: SPAN® 20 (sorbitan monolaurate) no CMC in water, too hydrophobic and yet still exerted an inhibitory effect on the form conversion • Surf 4: TWEEN® 80 Critical Micellar Concentration (CMC) 13-15 mg/litre [actual concentration used=0.01 mg/ml, 10 mg/litre<CMC] • TWEEN® surfactants are soluble in water and SPAN® surfactants are oil soluble and not able to form micelles in water.

[2] = Thermocycling of Form A, Form B(I) and Form B(II) in purified water; conditions: purified water (10 vol), −10 to +10° C., ±0.5° C./minute, 75 h
Description: Samples of Compound 1, Form A, Form B(I) and Form B(II) were charged to separate Crystal 16 blank, glass vials and purified water (1 ml, 10.0 vol) was added each vial. Each vial underwent thermocycling from −10 to +10° C. at a ramp rate of ±0.5° C./minute, over 75 h.

[3] = Competitive suspension equilibrations in acetonitrile; conditions: acetonitrile (20 vol)
Text: Form A of Compound 1 and the appropriate other form(s) of Compound 1 were suspended in acetonitrile (20 vol). […] When completed, the products were isolated, oven dried and analysed by XRPD.

[4] = Dynamic vapour sorption (DVS) of Form A
Description: The moisture sorption properties of the feed API were analysed by DVS (DVS Intrinsic,
Surface Measurement System). Approximately 50 mg of API was weighed into an aluminium pan and loaded into the instrument at 25° C. The sample was allowed to equilibrate under dry atmosphere (0% relative humidity) for 1 hour before increasing the humidity from 0% to 30% at 5% step increment and from 30% to 90% at 10% step increment. A desorption cycle was also applied from 90% to 30% (10% step) and from 30% to 0% (5% step). A rate of change by time was set as the equilibrium parameter (1 hour each step). Kinetic and isotherm graphs were calculated.

[5] = Thermocycling of Form B(I) in buffered aqueous suspensions (Form A control); conditions: −10° C. to +40° C.
Description: Form B(I) was prepared in the relevant formulation under sterile conditions. The samples were thermocycled for approximately 202 complete cycles. Off-line analyses of the suspensions were performed by polarised light microscopy and end point sampling was performed on the isolated solid pellets of the suspensions after centrifugation. The thermocycling incorporated a wide temperature range (−10° C. to +40° C.). A parallel study was performed using micronised Form A as control.
In all cases, the suspension volume was 2 ml and thermocycling was carried out over a temperature range −10° C. to +40° C. at a rate of change of 1° C./min for a duration of 336 hours (14 days) and […] cycles.
At daily intervals, a droplet from each thermocycle suspension was withdrawn, placed on a microscope slide and photographed. After 14 days constant thermocycling, the suspensions were filtered, isolable solids were oven dried and analysed for evidence of form change and change in chemical purity.

[6] = Suspension equilibrations of Form A (Example 7)
Description: Compound 1 Form A, (ca 50 mg, 1.0 wt) and the appropriate solvent (1000 μl, 20 vol) were charged to separate vessels and stirred for 7 days at 20° C. After this time the products were cooled, isolated by filtration, washed with recycled maturation solvent, dried under reduced pressure at 40° C. and analysed by XRPD for evidence of alternative crystalline forms.
Separate portions of Compound 1, Form A (ca 50 mg, 1.0 wt.), and the appropriate solvent (1000 μl, 20 vol.) were charged to separate vessels and stirred for 7 days at 40° C. After this time, the products were cooled, isolated by filtration, washed with recycled maturation solvent, dried under reduced pressure at 40° C. and analysed by XRPD for evidence of alternative crystalline forms. N.B. water was also included in this screen. • All of the products corresponded to Form A, except the product isolated from tBME (Form D), and from THF (Form G; see FIG. 18). […] C. Aqueous Suspension Equilibrations of Form A at 20° C.
Separate portions of Compound 1, Form A (ca 50 mg, 1.0 wt.), and the appropriate solvent (950 μl, 19 vol) and purified water (50 μl, 1.0 vol) were charged to separate vessels and stirred for 7 to 10 days at 20° C. […] Form C is an anhydrous form, and sometimes occurs in the presence of aromatic solvents (toluene and trifluorotoluene).

[7] = Compaction of Forms B(I) and B(II) (ca 10 tonnes)
Text: Assuming that the inconsistencies between the dehydration behaviours of the two batches were attributed to different locations and bindings of their water occupancies, both were examined after 10 tonne compaction, to determine if their dehydration features were conserved or altered after the application of equal pressure treatments.
A finely divided specimen of Form B(II) was applied evenly to the smooth surface of the lower sample anvil that was located inside the compression cell apparatus. A second smoothed face anvil was placed above the first and the sample was pressed into place using finger pressure. The sealed sample cell was then evacuated under house vacuum pressure for at least 5 minutes. An axial load of ca 10 metric tonnes was applied to the upper anvil and the specimen was maintained under a state of unilateral compression for at least 15 minutes. After which time, the apparatus was dismantled and the product was retrieved from the sample holder and analysed to determine if any phase modifications had taken place.

[8] = Suspension equilibration of Form B in anhydrous acetonitrile; conditions: room temperature
Description: One portion of Form B(II) (1.01 g) was charged with anhydrous acetonitrile (15 vol, 15 ml).
This was stirred at room temperature with a flow of nitrogen. The mixture IPC was subsampled at t=3 h and t=23 h. The subsampled mixtures were centrifuged down (13400 rpm for 15 min), supernatants were removed and dried overnight in oven at 40° C. under reduced pressure. The remaining solid was dried (t=2 days) in oven overnight under reduced pressure at 40° C. overnight. The dried white solid (0.54 g, 54% yield not corr.) was analysed by XRPD and DSC.
A similar procedure was carried out for a portion of Form B(I) (1.06 g). Int his case, the mixture was subsampled at t=5 h and isolation was carried out at t=5 days. The uncorrected yield was 66%.

[9] = Suspension equilibration of Form B(II) in acetonitrile/water
Description: To further investigate the stability hierarchy of Form B (I) and Form B (II), an equal portion of both Form B (I) and Form B (II) were competitively slurry ripened in 4 to 1 MeCN/Water (w/w) for 3 days.
One portion of Form B(II) (1.06 g) was charged with 4 to 1 v/v acetonitrile/water (15 vol, 15 ml). This was stirred at room temperature with a flow of nitrogen. The mixture was subsampled at t=4 h and t=23 h. The subsamples were centrifuged down (13400 rpm for 15 min), supernatants were removed and dried overnight in oven at 40° C. under reduced pressure.

[10] = Suspension equilibration of Form B(II) in purified water; conditions: room temperature
Description: One portion of Form B(II) (1.0 g) was charged with purified water (15 vol, 15 ml). This was stirred at room temperature with a flow of nitrogen for 20 h. The mixture was subsampled at t=2 h and t=20 h. The subsampled mixture was centrifuged down (13400 rpm for 15 min) and supernatant was removed. The remaining solid was dried (at t=3 days) in the oven under reduced pressure at 40° C. overnight. The dried white solid (A0903-184-C1, 0.84 g, 83% yield not corr.). The result for the sample at 3 days are not shown as these are the same as the subsample taken at 20 hours.

[11] = micronised (particle size 2 μm), 20° C., with or without surfactant
[12] = citrate buffered surfactant suspensions, 1° C./min, 14 days

CC(C)(C)NC(=O)c1cc(NC(=O)Cc2cc(Cl)ccc2O)ccn1 [Form A, N-tert-Butyl-4-[[2-(5-chloro-2-hydroxy-phenyl)acetyl]amino]pyridine-2-carboxamide]
storage stability of Form A in pre-made composition (surfactant present) ([1]; 20 to 40° C. storage conditions): 120 h | Form B in aqueous suspension of Form A ([1]; 24 hour time point): no Form B can be detected | form present in aqueous suspension of Form A ([1]; after 8 days): substantially all of the Compound 1 was present as the Form B hydrate crystalline form | time after which micronised Form A had almost completely converted into Form B [1, 11]: 146 h | time after which micronised Form A had started to convert to Form B [1, 11]: 48 h | form change by XRPD and DSC after thermocycling [2]: did not change | Output form (XRPD) ([3]; 40 ° C., stirred 7 days): Form A | hydrate formation, XRPD repeated after the DVS test [4]: no hydrate was formed | hygroscopicity / moisture affinity by DVS [4]: not hygroscopic | change in mass (uptake of water) by DVS ([4]; 90% relative humidity (RH), 25° C.): 0.02% | form after thermocycling (XRPD) ([5]; citrate buffered Tween® 20/Span® 22, 14 days, 1° C./min): converted to Form B | form after thermocycling (XRPD) ([5]; citrate buffered Tween® 80, 14 days, 1° C./min): converted to Form B | time point of first morphological change (polarised light microscopy) ([5]; citrate buffered surfactant suspensions, 1° C./min): eight day | form stability to constant thermocycling (XRPD, DSC, TGA, microscopy) [5, 12]: changed into Form B(I) | chemical purity after thermocycling ([5]; 14 days, accompanying the form change): No reduction in chemical purity | form after suspension equilibration in purified water only (XRPD) ([6]; 20° C., 7 to 10 days): partial conversion into Form B | form after suspension equilibration in purified water (XRPD) ([6]; 40° C., 7 days): Form A, no Form B was evident | form stability in solvent suspension (XRPD) ([6]; anhydrous solvents (20 vol), 20° C., 7 days): resilient to prolonged solvent mediated treatments

CC(C)(C)NC(=O)c1cc(NC(=O)Cc2cc(Cl)ccc2O)ccn1 [Form B(I), N-tert-Butyl-4-[[2-(5-chloro-2-hydroxy-phenyl)acetyl]amino]pyridine-2-carboxamide]
form change by XRPD and DSC after thermocycling [2]: unchanged | form after 10 tonne compaction (DSC) [7]: unchanged | form stability to constant thermocycling (XRPD, DSC, TGA, microscopy) [5, 12]: stable | form after suspension equilibration in anhydrous acetonitrile (XRPD) ([8]; 5 hours, 5 days similar): rapidly converted to Form A

CC(C)(C)NC(=O)c1cc(NC(=O)Cc2cc(Cl)ccc2O)ccn1 [Form B (I) and Form B (II)]
resulting solid (DSC) after competitive slurry ripening ([9]; 4 to 1 MeCN/Water (w/w), 3 days): Form B (I)

CC(C)(C)NC(=O)c1cc(NC(=O)Cc2cc(Cl)ccc2O)ccn1 [Form A + Form D (1/1 w/w)]
Output form (XRPD) ([3]; 40 ° C., stirred 7 days): Form A

CC(C)(C)NC(=O)c1cc(NC(=O)Cc2cc(Cl)ccc2O)ccn1 [Form A + Form F (1/1 w/w)]
Output form (XRPD) ([3]; 20 ° C.): Form A

CC(C)(C)NC(=O)c1cc(NC(=O)Cc2cc(Cl)ccc2O)ccn1 [Form B(II), N-tert-Butyl-4-[[2-(5-chloro-2-hydroxy-phenyl)acetyl]amino]pyridine-2-carboxamide]
form after stirring in 4 to 1 v/v acetonitrile/water (DSC, XRPD) ([9]; room temperature, t=4 h and t=23 h): production of Form B(I); also recorded: converted to Form B(I) | form after suspension equilibration in purified water (DSC) ([10]; 2 hours): only the unimodal event was observed; also recorded: converted to Form B(I) | form after suspension equilibration in purified water (DSC) ([10]; 20 hours and three days): converted to Form B(I) | form change by XRPD and DSC after thermocycling [2]: almost all converted to the unimodal event | degree of crystallinity by XRPD before compression [7]: 87.2% | form after 10 tonne compaction (DSC) [7]: converted to Form B(I) | degree of crystallinity by XRPD after compression ([7]; ca 10 metric tonnes): 80.3% | form after 10 tonne compaction (DSC) ([7]; listed as Form B (II)): Form B (I) emerged | form after suspension equilibration in anhydrous acetonitrile (XRPD) ([8]; 3 hours, 23 hours and 3 days substantially the same): rapidly converted to Form A
